From article PMC10674987, “Sweet Cherry Extract as Permeation Enhancer of Tyrosine Kinase Inhibitors: A Promising Prospective for Future Oral Anticancer Therapies” (Pharmaceuticals, 2023)
Where two headings read alike, the source gives them in different places.

What was measured:
Caco-2 monolayer = test: Bidirectional permeability in Caco-2 cells in absence and presence of SCE; type: in vitro ADME, human; conditions: for Change of Papp A-B in presence of SCE vs Free / Change of Papp B-A in presence of SCE vs Free / Change of efflux ratio in presence of SCE vs Free: +SCE 1 mg/mL vs Free
Procedure: (§1) Caco-2 cells were seeded at a density of 2 × 10^4 on Transwell supports (0.4 µm pore polycarbonate membrane, 6.5 mm) and incubated overnight in a controlled atmosphere of 37 °C and 5% of CO2. The following day, the medium was changed to remove floating cells and fresh pre-warmed DMEM 20% was added (300 µL in the apical compartment and 1200 µL in the basal one). Cells were cultured for approximately 18–21 days in order to ensure that the cellular monolayers differentiated and many transport proteins and brush border hydrolases were expressed. Media were changed every 2–3 days.
(§2) For permeability studies, stock solutions of compounds were prepared by solubilizing 1.0 mg of accurately weighed powder with dimethyl sulfoxide (DMSO) and conserved at −20 °C. Immediately prior to the experiments, working solutions (WS) were prepared by diluting the stock solutions with pre-warmed HBSS to the final concentration of 10 µM. The final concentration of DMSO used never exceeded 0.1% v/v. The assays were performed in both the absorptive (from apical-to-basolateral compartment (A-B)) and the secretory direction (from basolateral-to-apical compartment (B-A)), both in the absence (Free) and presence of sweet cherry extract (+SCE [1 mg/mL]) diluted in HBSS. The final volumes used for the experiment were 300 µL in the apical compartment and 1200 µL in the basolateral one. Plates were incubated at 37 °C and maintained under gentle shaking (500 rpm) to reduce the effect of the unstirred water layer. At selected time points (T0–0.25–0.5–1–2 h-TEND for the A-B studies; T0–2 h–TEND for the B-A studies), samples (200 µL) were collected from the receiving compartments (from the basolateral compartment for the A-B assay; from the apical one for the B-A study) and replaced with the same volume of HBSS. The HPLC-UV/MS method was developed to quantify the amount of drug transferred across the cellular monolayer, and permeability (Papp, 10^−6 cm/s) and efflux ratio (ER) were calculated according to the following equations:Papp = (dQ/dt) × 1/(A × C0)(5) where dQ/dt is the steady-state flux (µmol s^−1), A is the area of the filter (cm^2), and C0 is the initial concentration in the donor compartment (µM). ER = (Papp B-A)/(Papp A-B)(6)
(§3) Chromatographic analyses were carried out using an Agilent 1260 Infinity HPLC-DAD system connected to an Agilent MSD 6130 system (Agilent Technologies, Palo Alto, CA, USA). At room temperature, a Kinetex C18-100 Å column (150 mm 4.6 mm, purchased from Phenomenex, Torrance, CA, USA) with a 5 µm particle size and gradient elution with a binary solution (eluent A: H2O, eluent B: ACN, both acidified with 0.1% v/v formic acid) was for the chromatographic separation. Analyses started with 5% B (from t = 0 to t = 1 min), then increased to 95% (from t = 1 to t = 10 min), then maintained at 95% (from t = 10 to t = 15 min), and finally returned to […] in 1.0 min. The volume injected was 10 µL, and the flow rate 600 µL/min. UV detection was monitored at 254 nm, and spectra were collected in both the positive and negative modes within the scan range of m/z 100–1500.

[1] = as above; type: in vitro ADME, human; conditions: human, 10 µM compound; for Papp A→B at 2 h, 10 µM: apical to basolateral; for Papp B→A at 2 h, 10 µM: basolateral to apical; for efflux ratio at 2 h, 10 µM: read-out: Efflux ratio (ER) (Papp B-A/Papp A-B)
Procedure: as §1, §2, §3

[2] = human liver microsomes; previously published; cited from earlier work
[3] = previously published; cited from earlier work
[4] = Cell viability assay (MTT) on Caco-2 cells; type: cell-based, human; conditions: human, Caco-2 cells, 2 h + 24 h fresh medium
Procedure: (§4) Cells were sub-cultured using a 1× trypsin/EDTA solution and then passed every 3–4 days at appropriate ratios (typically 1:3, 1:6, 1:12). […] After 2 h of treatment, solutions were aspirated from the wells, and the cells were washed with pre-warmed PBS. […] Furthermore, it was mandatory to identify the most suitable drug concentration that would avoid cytotoxic effects on Caco-2 cells (a condition that may bias the permeability study) and that would allow the optimal chromatographic response when analyzing the samples obtained. Therefore, cells were exposed to increasing concentrations of drugs (1–10–100 µM) for 2 h. […] In order to fully reproduce the conditions of the permeability studies and assess the possible induction of irreversible cytotoxic effects by SCE or drugs, cell viability was also checked after a further 24 h of incubation in free medium (2 h + 24 h). Cell viability was assessed as above described.

Caco-2 cells = test: Cell viability assay (MTT) on Caco-2 cells; type: cell-based, human; conditions: 2 h
Procedure: as §4

[5] = design: method as in earlier work; conditions: in humans; EMA reports; cited from earlier work
[6] = known from the literature; cited from earlier work
[7] = known from literature; cited from earlier work
[8] = previously published; cited from earlier work; remark: listed apart in the source

SMILES	Change of Papp A-B in presence of SCE vs Free (Caco-2 monolayer)	Change of Papp B-A in presence of SCE vs Free (Caco-2 monolayer)	Change of efflux ratio in presence of SCE vs Free (Caco-2 monolayer)	Papp A→B at 2 h, 10 µM ([1]; Caco-2, +SCE [1 mg/mL]) [×10⁻⁶ cm/s]	Papp B→A at 2 h, 10 µM ([1]; Caco-2, +SCE [1 mg/mL]) [×10⁻⁶ cm/s]	efflux ratio at 2 h, 10 µM ([1]; Caco-2, +SCE [1 mg/mL])	Papp A→B at 2 h, 10 µM ([1]; Caco-2, Free) [×10⁻⁶ cm/s]	Papp B→A at 2 h, 10 µM ([1]; Caco-2, Free) [×10⁻⁶ cm/s]	efflux ratio at 2 h, 10 µM ([1]; Caco-2, Free)	Metabolic Stability [2] [%]	PAMPA Papp [3]	PAMPA membrane retention (MR %) [3] [%]	further results
Oc1ccc(Cl)c(Nc2ncnc3c2cnn3CC(Cl)c2ccccc2)c1 (stereo not drawn) [Cpd 3]	~10 fold	more interesting implementation	almost halved	16.3 ± 0.537	32.5 ± 0.784	2 ± 0.114	1.68 ± 0.061	4.74 ± 0.097	~3	86.3	4.3 (-) 10^−6 cm/s		
Fc1ccc(C(Cl)Cn2ncc3c(NCc4ccccc4)ncnc32)cc1 (stereo not drawn) [Cpd 1]	about three and four times	more interesting implementation	almost halved	16.167 ± 0.014	26.8 ± 3.68	1.66 ± 0.226	4.943 ± 0.044	15.1 ± 1.57	~3	84.2		9.2	melting point: 143 to 144 °C
CC(Cn1ncc2c(Nc3cccc(O)c3)nc(NCCO)nc21)c1ccccc1 (stereo not drawn) [Cpd 4]	about three and four times	more interesting implementation	almost halved	16.9 ± 0.743	53.3 ± 1.8	3.16 ± 0.245	5.11 ± 0.385	34.5 ± 0.817	6.77 ± 0.351	99.4	lower than 1 10^−6 cm/s	1	
CSc1nc(NCCc2ccccc2)c2cnn(CC(Cl)c3ccccc3)c2n1 (stereo not drawn) [Cpd 2]	almost doubled	significant reduction	nine-fold reduction	0.224 ± 0.009	2.3 ± 0.279	10.2 ± 0.837		10.4 ± 0.363	97.3 ± 4.49	96.6	3.2 10^−6 cm/s	42.7	
CC(Cn1ncc2c(Nc3cc(O)ccc3Cl)nc(NCCO)nc21)c1ccccc1 (stereo not drawn) [Cpd 6]	about three and four times	more interesting implementation	almost halved	14.9 ± 1.86	51.45 ± 0.118	3.48 ± 0.445	3.32 ± 0.041	19 ± 2.15	5.71 ± 0.578	97.9	lower than 1 10^−6 cm/s	4.0	
CC(Cn1ncc2c(Nc3cc(O)ccc3Cl)nc(SCCN3CCOCC3)nc21)c1ccccc1 (stereo not drawn) [Cpd 5]	only a slight improvement	significant reduction	almost halved	1.54 ± 0.095	5.99 ± 0.286	3.88 ± 0.054	1.25 ± 0.122	8.04 ± 0.183	6.46 ± 0.486	97.9	over 10 10^−6 cm/s	6.6	Caco-2 Papp A-B lower than PAMPA Papp (Caco-2 monolayer; Free): ~10 fold

Continued, in another order:

Change of Papp A-B in presence of SCE vs Free (Caco-2 monolayer)	Change of Papp B-A in presence of SCE vs Free (Caco-2 monolayer)	Change of efflux ratio in presence of SCE vs Free (Caco-2 monolayer)	Papp A→B at 2 h, 10 µM ([1]; Caco-2, +SCE [1 mg/mL]) [×10⁻⁶ cm/s]	Papp B→A at 2 h, 10 µM ([1]; Caco-2, +SCE [1 mg/mL]) [×10⁻⁶ cm/s]	efflux ratio at 2 h, 10 µM ([1]; Caco-2, +SCE [1 mg/mL])	Papp A→B at 2 h, 10 µM ([1]; Caco-2, Free) [×10⁻⁶ cm/s]	Papp B→A at 2 h, 10 µM ([1]; Caco-2, Free) [×10⁻⁶ cm/s]	efflux ratio at 2 h, 10 µM ([1]; Caco-2, Free)	SMILES	Metabolic Stability [2] [%]	PAMPA Papp [3]	PAMPA membrane retention (MR %) [3] [%]	further results
slight increase	did not show relevant changes	reduced	2.41 ± 0.12	31.1 ± 0.342	12.9 ± 0.786	2.02 ± 0.103	36.9 ± 2.95	18.2 ± 0.529	Cc1nc(Nc2ncc(C(=O)Nc3c(C)cccc3Cl)s2)cc(N2CCN(CCO)CC2)n1 [Dasatinib, dasatinib, reference compound]				viability at 10 µM ([4]; 10 µM): 90 to 100%; viability at 100 µM ([4]; 100 µM): 70 to 80%; Cell viability (Caco-2 cells; 1 µM, vs untreated control): no significant signs of toxicity; Bioavailability [5]: 15.2%
doubled	did not show relevant changes	almost halved	93.1 ± 3.84	37.2 ± 4.73	0.399 ± 0.034	41.3 ± 4.28	33.6 ± 0.967		CC(C)NCC(O)COc1cccc2ccccc12 (stereo not drawn) [Propranolol, propranolol, reference compound]				Oral bioavailability / oral absorption (of an oral dose) [6]: around 90%; Cell viability (Caco-2 cells; 1 µM, vs untreated control): no significant signs of toxicity; Cell viability (Caco-2 cells; 100 µM): high percentages of viable cells; Papp [7]: higher than 10 × 10^−6 cm/s
almost doubled	only a slight increase	only a slight decrease	1.17 ± 0.12	0.457 ± 0.108	0.387 ± 0.052	< 0.5	0.229 ± 0.023	0.517 ± 0.014	Oc1ccc(Cl)c(Nc2nc(SCCN3CCOCC3)nc3c2cnn3/C=C/c2ccccc2)c1 [Cpd 7]	97.6	5.5 10^−6 cm/s	5.4	Efflux ratio (ER) (Papp B-A/Papp A-B) (Caco-2 monolayer; Free, 10 µM compound): 0.481 ± 0.049; melting point: 189 to 191 °C; Water Solubility [8]: 0.036 µg/mL
